Data as given in publication PMC5552691, “Novel giardicidal compounds bearing proton pump inhibitor scaffold proceeding through triosephosphate isomerase inactivation” (Scientific Reports, 2017).

Key:
[1] = biological target: T1, triosephosphate isomerase of G. lamblia (GlTIM) (Giardia intestinalis, UniProt P36186, C202A); experiment: Inactivation assay of recombinant GlTIM (C202A variant); type: biochemical; conditions: for Inactivation of GlTIM (in words): 2 hours at 37 °C; for kinact/KI: pH 7.4, read-out: Second-order rate constant of inactivation
T1 construct: His-tag (N, cleaved yes); TEV protease recognition site (N); made in house; host or cells: Escherichia coli
Description: We evaluated the effect of compounds incubating the enzyme with each one of them for 2 hours at 37 °C and the IC50 values were then calculated from the residual activity data.
GlTIM (200 µg/mL) was incubated with increasing concentrations of compounds. After 2 hours of incubation at 37 °C, the reactions were stopped by dilution and the remaining activity was determined as described in the material and methods section.
(§1) For all assays we used mutant GlTIM C202A in order to work with the dimeric form of enzyme; this mutant was referred in the paper as GlTIM and was prepared as described before. The recombinant GlTIM containing a His-tag in its NH-terminal together with a recognition region for tobacco […] virus protease, was expressed in Escherichia coli. The GlTIM purification was performed by using IMAC method; after His-tag was removed, the enzyme was stored at 4 °C in a buffer containing 100 mM triethanolamine, 10 mM EDTA, pH 7.4 (TE buffer). […] Mutant of GlTIM C222A and human TIM (HsTIM) were prepared as described before, [33]. Protein content of GlTIM and HsTIM was calculated by using a ε M ^−1cm^−1 of 26,600 and 32,595, respectively. For all assays, the enzymes were freshly prepared with no more of two weeks of storage.
TIM activity was determined in a Cary50 spectrophotometer (Varian) at 25 °C using coupling assay following the conversion of D-glyceraldehyde 3-phosphate to dihydroxyacetone phosphate as described before. The reaction mixture contained TE buffer (pH 7.4) supplemented with 0.2 mM NADH, 1 mM GAP, and 0.9 U of alpha-GDH. The reaction started by adding 5 ng/mL of TIM.
(§2) Omeprazole and compounds stock solutions were freshly prepared using 100% DMSO as solvent. […] The reaction was stopped by diluting the enzyme 40,000 times in TE buffer and then, the remaining activity was determined. The second-order rate constants of inactivation were calculated from obtaining the pseudo-first order rate constant (k 1) values at each fixed concentration of compounds by fitting them to an exponential decay. Then, the k 1 values were re-plotted against the employed concentrations of each compound; the second-order rate constant value of inactivation was obtained from the slope of these plots.

GlTIM = biological target: T2, GlTIM (Giardia intestinalis, UniProt P36186, C202A); experiment: Quantification of free Cys of derivatized GlTIM (Ellman's reagent); type: biochemical, Giardia lamblia; conditions: for Number of free Cys per monomer after treatment: GlTIM 6 mg/mL (214 µM), compound 1 mM, two hours at 37 °C; for Number of free Cys per monomer after treatment and then DTT: derivatized enzyme incubated with 5 mM DTT during 15 minutes
T2 construct: His-tag (N, cleaved yes); TEV protease recognition site (N); made in house; host or cells: Escherichia coli
Description: We evaluated the first option by determining the residual free Cys after derivatization with compounds and afterwards reducing agent treatment. Thus, 6 mg/mL (214 µM) of GlTIM was incubated with or without each one of compounds (1 mM) during two hours at 37 °C. It is important to remark that at the protein concentration used for this aim, a considerable quantity was precipitated. Therefore, the incubation of the samples was arrested by centrifuging and then filtration through a 3 mL Sephadex G-25 column, and the number of free Cys quantified from the soluble protein. […] In contrast, the number of Cys per monomer obtained for omeprazole, BHO2 and BHO3 treatment was respectively 2.02 ± 0.02, 1.9 ± 0.2 and 2.15 ± 015. […] An aliquot of each derivatized enzyme was withdrawn and incubated with 5 mM DTT during 15 minutes; then, the samples were filtered and the free Cys was again quantified. The number of Cys/monomer was 2.2 ± 0.2, 2,1 ± 0.22 and 1.8 ± 0.18 for omeprazole, BHO2 and BHO3, respectively.
To carry out the experiments, the derivatized GlTIM with different molecules was incubated with 2 mM DTT and then filtered through 3 mL Sephadex G-25 column to remove the unreacted compounds. All spectroscopic assays were carried out at protein concentration of 0.2 mg/mL (7 µM). Cysteine quantification was performed spectrophotometrically using de Ellman’s reagent as described before, [36]. Briefly, 200 µg of GlTIM were suspended in TE buffer supplemented with 5% SDS; after an incubation of 10 min at 25 °C, the enzyme was added to a cuvette containing 500 µL of TE buffer supplemented with 5% SDS and 1 mM DTNB. Cysteine quantification was done following the increase of absorbance at 412 nm, using an ε M ^−1 cm ^−1 of 13,600[36].

[2] = test system: G. lamblia WB trophozoites; experiment: Susceptibility assay of Giardia trophozoites; type: cell-based, Giardia lamblia; conditions: Giardia duodenalis; 48 hours at 37 °C with compound, then 48 hours in compound-free medium; ± standard error
Description: The anti-giardiasic ability of compounds was tested in an in vitro. […] Thus, for BHO2 and BHO3 the values (130 and 122 µM, respectively) were around of the half of that obtained for omeprazole (300 µM).
Figure 6 Anti-giardiasic activity of Compounds in trophozoites. Cultures of trophozoites (100,000 trophozoites/mL) were incubated during 48 hours at 37 °C with increasing concentrations of compounds. Afterward, samples were withdrawn and resuspended in a medium free of compounds. The samples were incubated for other 48 hours/37 °C and thereafter, the viability of trophozoites were quantified. The values represent ± standard deviation from three independent experiments.
We used the G. lamblia WB reference isolate in all experiments. The splitting method used to our susceptibility assays is described below. Cultures with 100,000 trophozoites/mL on TYI-S-33 medium were incubated during 48 hours at 37 °C supplemented with increasing concentrations of compounds ranging from 32.5 to 500 µM. Afterward, samples were chilled in ice for 15 minutes, washed with medium and resuspended in 50 µL of medium free of compounds and antibiotic. Then, trophozoites were diluted in 1 mL of medium free of compounds and antibiotic, incubated for 48 hours at 37 °C and then, the viability of trophozoites was manually quantified by using a Neubauer chamber; the viability percent and IC50 was subsequently calculated.

[3] = Cytotoxicity assay (MTT) in human fibroblasts; type: cell-based; conditions: human, gingival human fibroblasts, 95% confidence limits in square brackets
Description: (§3) The cytotoxic effect of these compounds was also evaluated in mammal cell cultures and their CC50 values calculated and depicted in Table 2.
(§4) We used the cell lines VERO (ATCC:CCL-81) and gingival human fibroblasts (kindly provided by Dra. María Dolores Farfán from Facultad de Odontología, Universidad Nacional Autónoma de México). The assay procedure is described below. Cells were maintained in a DMEM medium supplemented with antibiotic-antimycotic (1X), L-glutamine (1X) and 10% fetal bovine serum. Cells were incubated in 25 mL plastic culture flasks (Nunc) at 37 °C and 5% CO2. After the cell cultures grew to confluence, we determined the cell viability by using Trypan Blue method; then, cells were seeded at 4 × 10^4 cells/well in 100 µL culture medium during 24 hours. […] DMSO was maintained constant at 0.2%; a control was performed by incubating cells with this solvent concentration but in absence of compounds. After incubation time, we measured the cell viability by using MTT (3-(4,5-Dimethyl-2-thiazolyl)-2,5-diphenyl-2H-tetrazolium bromide; Roche Diagnostics) method. Briefly, 10 µL MTT (5 mg/mL) was added to cell cultures and incubated at 37 °C during four hours; then, 100 µL of solution containing 10% SDS and 0.01N HCl was added. Thereafter, the formazan products were spectrophotometrically quantified at 570 nm (Labxystem Uniskan, Manchester). The CC50 (median cytotoxicity concentration) and CI95 (95% confidence interval) values from each experiment were determined from the concentration-percentage plots of cell viability obtained by logistic regression. Statistical analysis was performed using the SPPSS software (version 17.0).

[4] = Cytotoxicity assay (MTT) in VERO cells; type: cell-based; conditions: African green monkey, VERO cells (ATCC CCL-81); 24 hours, MTT; 95% confidence limits in square brackets
Description: as §3, §4

VERO cells = experiment: Cytotoxicity assay (MTT) in VERO cells; type: cell-based; conditions: for CC50 mammal cells relative to IC50 for trophozoites: mammal cells: human fibroblasts and VERO cells together
Description: as §3, §4

[5] = Solubility (remark in the discussion); type: physicochemical
mutant GlTIM C222A = biological target: T3, mutant GlTIM C222A (Giardia intestinalis, UniProt P36186, C202A/C222A); experiment: Inactivation assay of mutant GlTIM C222A; type: biochemical, Giardia lamblia
T3 construct: made in house
Description: as §1, with “For all assays, the enzymes were freshly prepared with no more of two weeks of storage.” left out
(§5) TIM activity was determined in a Cary50 spectrophotometer (Varian) at 25 °C using coupling assay following the conversion of D-glyceraldehyde 3-phosphate to dihydroxyacetone phosphate as described before. […]
as §2, with “Then, the k 1 values were re-plotted against the employed concentrations of each compound; the second-order rate constant value of inactivation was obtained from the slope of these plots.” left out

human TIM (HsTIM) = biological target: T4, human TIM (HsTIM) (Homo sapiens, UniProt P60174); experiment: Inactivation assay of human TIM; type: biochemical
T4 construct: made in house
Description: as §1, with “For all assays, the enzymes were freshly prepared with no more of two weeks of storage.” left out
as §5
as §2, with “Then, the k 1 values were re-plotted against the employed concentrations of each compound; the second-order rate constant value of inactivation was obtained from the slope of these plots.” left out

[6] = test system: gingival human fibroblasts; experiment: Cytotoxicity assay (MTT) in human fibroblasts; type: cell-based; conditions: 24 hours, 95% confidence limits in square brackets
Description: as §3, §4

[7] = biological target: T1, triosephosphate isomerase of G. lamblia (GlTIM); conditions: cited from earlier work

T1 sequence (P36186 whole entry C202A): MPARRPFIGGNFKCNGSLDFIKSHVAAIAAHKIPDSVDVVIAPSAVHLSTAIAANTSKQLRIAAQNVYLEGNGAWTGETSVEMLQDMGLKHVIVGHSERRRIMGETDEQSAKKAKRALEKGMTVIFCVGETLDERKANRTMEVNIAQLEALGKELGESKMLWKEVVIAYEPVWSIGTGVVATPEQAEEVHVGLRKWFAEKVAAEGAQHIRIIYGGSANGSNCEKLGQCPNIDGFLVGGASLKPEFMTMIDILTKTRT
T2 sequence (P36186 whole entry C202A): as above
T3 sequence (P36186 whole entry C202A/C222A): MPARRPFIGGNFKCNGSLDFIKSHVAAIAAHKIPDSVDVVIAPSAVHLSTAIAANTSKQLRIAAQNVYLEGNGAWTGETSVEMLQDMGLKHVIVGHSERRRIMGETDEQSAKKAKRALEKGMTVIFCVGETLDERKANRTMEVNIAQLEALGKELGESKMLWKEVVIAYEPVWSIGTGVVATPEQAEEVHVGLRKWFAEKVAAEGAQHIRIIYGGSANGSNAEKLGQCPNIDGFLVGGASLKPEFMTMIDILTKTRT
T4 sequence (P60174 whole entry): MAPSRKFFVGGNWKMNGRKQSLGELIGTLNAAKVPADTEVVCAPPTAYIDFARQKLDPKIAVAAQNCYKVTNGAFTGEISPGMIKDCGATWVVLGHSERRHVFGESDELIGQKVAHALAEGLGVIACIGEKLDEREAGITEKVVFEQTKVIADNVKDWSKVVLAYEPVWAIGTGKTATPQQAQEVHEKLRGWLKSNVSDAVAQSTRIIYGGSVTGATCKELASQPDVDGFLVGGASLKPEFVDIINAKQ

In the case of Cc1ccc2nc([S+]([O-])Cc3ccccn3)[nH]c2c1 (centres unmarked) [BHO1, 5(6)-methyl-2-[(pyridin-2-ylmethyl)sulfinyl]−1H-benzimidazole], the “Inactivation of GlTIM (in words)” value [1] is reported as “inactivated scarcely” and the melting point is reported as 121.3 to 122.9 °C.
For COc1c(C)cnc(C[S+]([O-])c2nc3ccc(C)cc3[nH]2)c1C (centres unmarked) [BHO2, 2-[(4-methoxy-3,5-dimethylpyridin-2-yl)methylsulfinyl]-5(6)-methyl-1H-benzimidazole], the IC50 [1] was 64 µM, the “Increase of reactivity against GlTIM respect to omeprazole” value [1] was “three-fold” and the “Reversibility of GlTIM inhibition” value [1] was “irreversibly”. For the same compound, the kinact/KI [1] was 1.6 ± 0.1 M⁻¹ s⁻¹, the “Number of free Cys per monomer after treatment” value (GlTIM) was 1.9 ± 0.2 Cys/monomer and the IC50 [2] was 130 µM. For the same compound, the CC50 at 24 h [3] was 5000 µM, the CC50 at 24 h [4] was 8000 µM and the “CC50 mammal cells relative to IC50 for trophozoites” value (VERO cells) was 38- to 61 fold. The “Solubility respect to omeprazole” value [5] was “improved its solubility” and the melting point was 221.4 to 222.8 °C.
In the case of COc1ccc2[nH]c([S+]([O-])Cc3ncc(C)c(OC)c3C)nc2c1 (centres unmarked) [Omeprazole, omeprazole, reference compound], the IC50 [1] is reported as 225 µM, the “Inactivation of GlTIM (in words)” value [1] is reported as “inactivated the GlTIM completely” and the kinact/KI [1] is reported as 0.78 ± 0.016 M⁻¹ s⁻¹. The “Effect on activity of mutant GlTIM C222A (in words)” value (mutant GlTIM C222A) was “affects marginally”, the “Inactivation of HsTIM (in words)” value (human TIM (HsTIM)) was “unaffected” and the “Number of free Cys per monomer after treatment” value (GlTIM) was 2.02 ± 0.02 Cys/monomer. For the same compound, the “Number of free Cys per monomer after treatment and then DTT” value (GlTIM) was 2.2 ± 0.2 Cys/monomer, the IC50 [2] was 300 ± 10.2 µM and the “CC50 Human Fibroblasts” value [6] was “No effect”. For the same compound, the “CC50 Human Fibroblasts” value ([6]; listed as omeprazole) was “did not show cytotoxic effect”, the CC50 at 24 h [4] was 14000 µM and the “CC50 VERO cells relative to trophozoites cytotoxicity” value (VERO cells) was 46 fold. For the same compound, the “Reversibility of GlTIM inhibition, reported before” value [7] was “irreversible” and the “Second-order rate constant of inactivation, previously reported” value [7] was 0.6 M⁻¹ s⁻¹.
In the case of Cc1ccc2nc([S+]([O-])Cc3nccc(OCC(F)(F)F)c3C)[nH]c2c1 (centres unmarked) [BHO3, 5(6)-Methyl-2-({[3-methyl-4-(2,2,2-trifluoroethoxy)pyridin-2-yl]methyl}sulfinyl]-1H-benzimidazole], the IC50 [1] is reported as 100 µM, the “Increase of reactivity against GlTIM respect to omeprazole” value [1] is reported as “two-fold” and the “Reversibility of GlTIM inhibition” value [1] is reported as “irreversibly”. The kinact/KI [1] was 1.2 ± 0.06 M⁻¹ s⁻¹, the “Number of free Cys per monomer after treatment” value (GlTIM) was 2.15 ± 015 Cys/monomer and the “Number of free Cys per monomer after treatment and then DTT” value (GlTIM) was 1.8 ± 0.18 Cys/monomer. It also gave an IC50 [2] of 122 ± 1.7 µM, a CC50 at 24 h [3] of 5500 µM and a CC50 at 24 h [4] of 4700 µM. For the same compound, the “CC50 mammal cells relative to IC50 for trophozoites” value (VERO cells) was 38- to 61 fold and the melting point was 228.5 to 229.8 °C.
